Tests used:
[1] = molecular target: T1, TKTL1 (transketolase-like-1) (Homo sapiens, UniProt P51854); test: biolayer interferometry, His-tagged protein on anti-His biosensors, […] fit; format: binding; settings: PBST, 30 °C, 0.82-200 µM ligand; KD = kd/ka
T1 construct: CDS in pET-22b(+), His-tagged, E. coli BL21(DE3), Ni-NTA; tag kept (captured on anti-His biosensors)
T1 sequence (P51854 1-596): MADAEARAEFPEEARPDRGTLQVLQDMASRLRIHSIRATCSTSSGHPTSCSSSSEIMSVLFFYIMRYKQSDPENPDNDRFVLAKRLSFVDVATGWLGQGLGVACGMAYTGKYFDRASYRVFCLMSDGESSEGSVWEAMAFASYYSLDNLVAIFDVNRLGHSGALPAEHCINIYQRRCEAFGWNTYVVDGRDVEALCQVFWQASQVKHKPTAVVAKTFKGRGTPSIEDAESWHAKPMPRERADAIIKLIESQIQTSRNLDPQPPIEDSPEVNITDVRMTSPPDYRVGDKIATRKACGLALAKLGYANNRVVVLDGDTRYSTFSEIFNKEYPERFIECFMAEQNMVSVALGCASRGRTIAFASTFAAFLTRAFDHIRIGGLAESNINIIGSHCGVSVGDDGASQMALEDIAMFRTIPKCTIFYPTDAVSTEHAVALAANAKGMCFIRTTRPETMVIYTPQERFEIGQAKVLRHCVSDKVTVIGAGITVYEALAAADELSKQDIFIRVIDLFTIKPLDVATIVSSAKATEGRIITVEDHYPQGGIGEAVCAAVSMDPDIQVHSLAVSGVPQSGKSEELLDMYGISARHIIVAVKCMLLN

CPT2 = molecular target: T2, CPT2 (Homo sapiens, UniProt P23786); test: CoA consumption, DTNB at […] nm; format: biochemical; settings: 2 mM CoA, 2 mM palmitoyl-L-carnitine, pH 7.5, 37 °C
T2 sequence (P23786 26-658): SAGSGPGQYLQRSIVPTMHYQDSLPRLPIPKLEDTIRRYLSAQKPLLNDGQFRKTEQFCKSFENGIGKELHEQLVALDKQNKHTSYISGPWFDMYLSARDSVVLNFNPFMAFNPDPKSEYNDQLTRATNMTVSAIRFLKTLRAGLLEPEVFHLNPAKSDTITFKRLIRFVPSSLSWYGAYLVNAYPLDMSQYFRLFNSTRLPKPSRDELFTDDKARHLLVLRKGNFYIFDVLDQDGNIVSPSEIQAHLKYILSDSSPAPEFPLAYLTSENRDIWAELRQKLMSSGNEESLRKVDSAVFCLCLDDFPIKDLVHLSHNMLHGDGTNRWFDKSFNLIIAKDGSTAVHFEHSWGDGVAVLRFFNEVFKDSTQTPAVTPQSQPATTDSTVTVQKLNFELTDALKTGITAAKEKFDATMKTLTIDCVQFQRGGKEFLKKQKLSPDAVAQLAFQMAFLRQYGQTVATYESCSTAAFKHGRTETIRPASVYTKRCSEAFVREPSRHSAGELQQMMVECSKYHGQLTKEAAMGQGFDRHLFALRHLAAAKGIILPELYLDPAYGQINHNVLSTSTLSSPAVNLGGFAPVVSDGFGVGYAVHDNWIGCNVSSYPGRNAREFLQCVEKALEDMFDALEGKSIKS

Row | Kd [1] [µM] | Structure (SMILES) | relative specific activity (CPT2)
1 | 8.58 | O=S(=O)(O)OC[C@H]1OC(O)[C@H](O)[C@@H]1O (some centres unmarked) [R5S] | 
2 |  | CC(C)(COP(=O)(O)OP(=O)(O)OC[C@H]1O[C@@H](n2cnc3c(N)ncnc32)[C@H](O)[C@@H]1OP(=O)(O)O)[C@@H](O)C(=O)NCCC(=O)NCCS [CoA] | CPT2 activity was assayed by measuring the decrease in CoA levels

From paper PMC12713023, “CDH1 Orchestrates Anabolic Events to Promote Cell Cycle Initiation” (Advanced Science, 2025)
